From ChEMBL document CHEMBL5096227, “Discovery of Ervogastat (PF-06865571): A Potent and Selective Inhibitor of Diacylglycerol Acyltransferase 2 for the Treatment of Non-alcoholic Steatohepatitis” (J Med Chem, 2022)

How the values were obtained:
Cytochrome P450 2D6 = Cytochrome P450 2D6 (Homo sapiens, UniProt P10635); experiment: Reversible inhibition of CYP2D6 in pooled human liver microsomes using dextrorphan as substrate incubated for 14 mins in presence of NADPH by HPLC-MS/MS analysis; type: ADME, Microsome
Chain of Cytochrome P450 2D6 (P10635 whole entry): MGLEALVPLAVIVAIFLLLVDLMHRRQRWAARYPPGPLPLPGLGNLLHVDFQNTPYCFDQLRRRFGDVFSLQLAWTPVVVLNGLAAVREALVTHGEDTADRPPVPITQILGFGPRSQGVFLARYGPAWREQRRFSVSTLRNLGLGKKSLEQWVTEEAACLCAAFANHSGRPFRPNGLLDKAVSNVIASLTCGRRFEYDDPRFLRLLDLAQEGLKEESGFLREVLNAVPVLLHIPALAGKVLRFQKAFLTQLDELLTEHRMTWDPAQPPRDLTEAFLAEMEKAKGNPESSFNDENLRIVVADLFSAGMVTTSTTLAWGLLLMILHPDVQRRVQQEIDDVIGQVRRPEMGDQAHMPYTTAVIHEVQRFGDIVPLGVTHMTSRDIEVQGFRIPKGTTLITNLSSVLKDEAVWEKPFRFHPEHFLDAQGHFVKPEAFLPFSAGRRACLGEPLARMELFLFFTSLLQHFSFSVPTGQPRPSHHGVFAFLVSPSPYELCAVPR

[1] = Apparent intrinsic clearance in cryopreserved human hepatocytes measured per million cells at 1 uM incubated for 4 hrs by LC-MS/MS analysis; type: ADME, cell-based, Hepatocyte; settings: cryopreserved human hepatocytes, read-out: CLH
[2] = target: T1, Diacylglycerol O-acyltransferase 1 (Homo sapiens, UniProt O75907); experiment: Inhibition of human DGAT1 using [1-14C]decanoyl-CoA and 1,2-didecanoyl-sn-glycerol as substrates assessed as incorporation of [1-14C]decanoyl […] preincubated for 30 mins followed by substrate addition and measured after 30 to 90 mins by scintillation counting method
T1 sequence (O75907 whole entry): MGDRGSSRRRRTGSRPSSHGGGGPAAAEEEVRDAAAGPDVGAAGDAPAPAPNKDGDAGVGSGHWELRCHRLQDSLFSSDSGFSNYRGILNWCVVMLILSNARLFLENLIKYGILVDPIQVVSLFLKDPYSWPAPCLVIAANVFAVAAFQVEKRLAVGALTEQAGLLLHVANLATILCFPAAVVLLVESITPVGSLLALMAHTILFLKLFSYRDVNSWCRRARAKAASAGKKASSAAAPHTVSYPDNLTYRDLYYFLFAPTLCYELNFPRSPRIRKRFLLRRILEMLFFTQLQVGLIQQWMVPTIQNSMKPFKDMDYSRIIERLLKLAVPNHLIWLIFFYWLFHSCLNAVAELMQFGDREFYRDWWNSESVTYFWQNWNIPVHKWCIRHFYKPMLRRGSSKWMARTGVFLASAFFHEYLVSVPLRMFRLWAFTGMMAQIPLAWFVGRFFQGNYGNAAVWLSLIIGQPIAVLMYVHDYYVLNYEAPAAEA

[3] = Drug metabolism in cryopreserved human hepatocytes assessed as hydrolytic cleavage of amide bond mediated metabolite formation at 10 uM measured for 240 mins by HPLC-UV-MS analysis; type: ADME, cell-based, Hepatocyte; settings: 4 h
[4] = target: Voltage-gated inwardly rectifying potassium channel KCNH2 (Homo sapiens, UniProt Q12809); experiment: Inhibition of hERG by patch-clamp method; type: toxicity
Chain of Voltage-gated inwardly rectifying potassium channel KCNH2 (Q12809 whole entry): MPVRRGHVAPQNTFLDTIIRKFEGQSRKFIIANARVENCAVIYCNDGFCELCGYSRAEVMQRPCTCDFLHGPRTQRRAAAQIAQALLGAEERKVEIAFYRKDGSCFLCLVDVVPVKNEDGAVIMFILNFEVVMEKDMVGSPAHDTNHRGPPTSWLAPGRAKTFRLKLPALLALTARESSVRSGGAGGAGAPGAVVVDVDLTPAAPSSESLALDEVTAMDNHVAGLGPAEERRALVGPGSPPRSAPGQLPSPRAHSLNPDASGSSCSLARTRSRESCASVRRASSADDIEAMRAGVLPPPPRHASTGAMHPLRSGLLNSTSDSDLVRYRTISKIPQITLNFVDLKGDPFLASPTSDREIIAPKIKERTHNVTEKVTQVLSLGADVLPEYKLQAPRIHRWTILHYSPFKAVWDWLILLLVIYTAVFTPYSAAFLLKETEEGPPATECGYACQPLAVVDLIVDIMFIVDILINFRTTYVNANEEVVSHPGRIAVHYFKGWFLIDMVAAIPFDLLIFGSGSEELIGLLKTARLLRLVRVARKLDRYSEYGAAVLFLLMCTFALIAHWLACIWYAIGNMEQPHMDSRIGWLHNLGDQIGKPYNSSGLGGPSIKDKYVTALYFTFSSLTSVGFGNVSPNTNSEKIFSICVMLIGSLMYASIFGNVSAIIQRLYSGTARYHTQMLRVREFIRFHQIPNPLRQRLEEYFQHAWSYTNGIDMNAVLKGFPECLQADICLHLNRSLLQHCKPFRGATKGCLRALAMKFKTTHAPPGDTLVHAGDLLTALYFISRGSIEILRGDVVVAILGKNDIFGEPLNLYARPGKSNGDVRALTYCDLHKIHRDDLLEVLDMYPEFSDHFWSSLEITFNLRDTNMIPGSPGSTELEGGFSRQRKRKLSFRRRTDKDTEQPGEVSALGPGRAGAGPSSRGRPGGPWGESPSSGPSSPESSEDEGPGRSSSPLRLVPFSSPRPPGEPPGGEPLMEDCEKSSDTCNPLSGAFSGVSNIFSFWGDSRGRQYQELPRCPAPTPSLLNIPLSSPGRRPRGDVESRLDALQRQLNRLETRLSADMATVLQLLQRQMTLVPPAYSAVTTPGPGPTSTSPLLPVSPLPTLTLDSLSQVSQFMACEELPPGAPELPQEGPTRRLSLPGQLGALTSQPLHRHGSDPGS

Rattus norvegicus = experiment: In vivo inhibition of DGAT2 in high fat/high cholesterol diet fed Sprague-Dawley rat model assessed as reduction in plasma triglyceride level administered orally twice daily for 7 days starting from day 14 post diet and measured 2 hrs post last dose; type: functional, organism-based; settings: dose 0.3-90 mg/kg, route po, time 7.0 day, DDE = dose-dependent effect
[5] = In vivo inhibition of DGAT2 in high fat/high cholesterol diet fed Sprague-Dawley rat model assessed as reduction in plasma triglyceride level at 90 mg/kg, po administered twice daily for 7 days starting from day 14 post diet and measured 2 hrs post last dose relative to control; type: functional; set-up: scale not given: the % may be the effect or the level left; settings: time 7 day
[6] = Apparent permeability in MDCK-II cells; type: ADME, cell-based, Canis lupus familiaris; settings: dog, MDCK; read-out: Papp
[7] = Drug metabolism in cryopreserved human hepatocytes assessed as O-deethylation mediated pyridin-3-ol metabolite formation at 10 uM measured for 240 mins by HPLC-UV-MS analysis; type: ADME, cell-based, Hepatocyte; settings: 4 h
Cytochrome P450 1A2 = target: T2, Cytochrome P450 1A2 (Homo sapiens, UniProt P05177); experiment: Reversible inhibition of CYP1A2 in pooled human liver microsomes using […] as substrate incubated for 20 mins in presence of NADPH by HPLC-MS/MS analysis; type: ADME, Microsome
T2 sequence (P05177 whole entry): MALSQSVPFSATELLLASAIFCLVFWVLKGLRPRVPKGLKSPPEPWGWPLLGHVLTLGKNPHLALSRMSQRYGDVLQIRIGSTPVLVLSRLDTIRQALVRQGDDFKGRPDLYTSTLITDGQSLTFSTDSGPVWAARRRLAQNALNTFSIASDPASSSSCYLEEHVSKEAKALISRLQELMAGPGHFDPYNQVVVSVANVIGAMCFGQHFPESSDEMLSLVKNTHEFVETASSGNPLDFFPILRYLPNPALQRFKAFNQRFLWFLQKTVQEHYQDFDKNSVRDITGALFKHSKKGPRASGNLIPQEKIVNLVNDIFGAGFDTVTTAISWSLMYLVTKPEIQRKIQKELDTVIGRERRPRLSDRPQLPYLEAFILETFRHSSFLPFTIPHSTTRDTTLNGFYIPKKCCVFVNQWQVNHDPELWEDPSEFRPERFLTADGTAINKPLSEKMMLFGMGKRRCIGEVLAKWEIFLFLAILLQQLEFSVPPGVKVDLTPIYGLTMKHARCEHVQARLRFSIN

[8] = target: T3, Diacylglycerol O-acyltransferase 2 (Rattus norvegicus, UniProt Q5FVP8); experiment: Inhibition of rat DGAT2 using [1-14C]decanoyl-CoA and 1,2-didecanoyl-sn-glycerol as substrates assessed as incorporation of [1-14C]decanoyl into triacylglycerol preincubated for 120 mins followed by substrate addition and measured after 40 mins by scintillation counting method
T3 sequence (Q5FVP8 whole entry): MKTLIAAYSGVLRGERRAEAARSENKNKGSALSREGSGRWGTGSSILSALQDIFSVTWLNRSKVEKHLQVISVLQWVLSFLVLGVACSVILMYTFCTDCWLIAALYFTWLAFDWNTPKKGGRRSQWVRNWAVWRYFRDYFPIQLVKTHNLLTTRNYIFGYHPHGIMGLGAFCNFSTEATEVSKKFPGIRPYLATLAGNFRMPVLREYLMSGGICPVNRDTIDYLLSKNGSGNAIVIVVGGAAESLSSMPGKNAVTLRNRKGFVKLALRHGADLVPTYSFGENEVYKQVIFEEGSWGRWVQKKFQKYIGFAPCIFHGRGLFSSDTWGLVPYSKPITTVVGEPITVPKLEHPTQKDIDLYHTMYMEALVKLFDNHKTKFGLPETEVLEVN

[9] = Drug metabolism in rat hepatocytes assessed as oxidation of THF ring mediated metabolite formation; type: ADME, cell-based, Hepatocyte
[10] = Toxicity in rat assessed as development-limiting toxicity; settings: in vivo
[11] = Drug metabolism in monkey hepatocytes assessed as hydrolytic cleavage of amide bond mediated metabolite formation; type: ADME, cell-based, Macaca mulatta, Hepatocyte; settings: rhesus monkey
[12] = Plasma clearance in Wistar Han rat at 1 mg/kg, iv; type: ADME, organism-based

- IC50 (Cytochrome P450 2D6): > 100 µM
- hepatocyte CLint at 1 µM [1]: < 4 µL/min/1e6 cells
- IC50 [2]: > 50 µM
- Drug metabolism [3]: Metabolite_Detected
- Papp [6]: 19 ×10⁻⁶ cm/s
- Drug metabolism [7]: Metabolite_Detected
- IC50 (Cytochrome P450 1A2): > 100 µM
- IC50 [8]: 0.833 µM
- Drug metabolism [9]: Metabolite_Detected
- Drug metabolism [11]: Metabolite_Detected
- clearance [12]: 61 mL/min/kg
SMILES: CCOc1cccnc1Oc1cncc(-c2ncc(C(=O)N[C@H]3CCOC3)cn2)c1 [PF-06865571]
- IC50 [4]: > 100 µM
- Activity (Rattus norvegicus): Dde
- Activity [5]: 70%
- Activity [10]: Non-Toxic
